Laboratory results reported in PubChem BioAssay AID222 (DTP/NCI, 2004).
Values joined by “and” are separate entries in the source; they are usually repeats but may differ in a detail not shown here. Equal entries are not always repeated. Inconclusive results and toxic doses are left out.

System: C57BL/6 mice, intracerebral ependymoblastoma, median survival T/C
Test: NCI In Vivo Anticancer Drug Screen. Data for tumor model Ependymoblastoma (intracerebral) in C57BL/6 mice
Conditions: endpoint: median survival time, higher = longer survival
Procedure: The antitumor activity of compounds was measured in mice bearing transplantable tumors. Survival or tumor size were measured and the results are expressed as the measurement made in the treated group (T) divided by the measurement made in the vehicle treated control group (C). The tumor model used in this assay is Ependymoblastoma (intracerebral) in C57BL/6 mice

[1] = dose: 32.0 mg/kg/injection, schedule: Q01DX001 (ip), vehicle: Klucel (hydroxypropylcellulose) (HPC)
[2] = dose: 64.0 mg/kg/injection, schedule: Q01DX001 (ip), vehicle: Klucel (hydroxypropylcellulose) (HPC)
[3] = dose: 64.0 mg/kg/injection, schedule: Q01DX001 (oral), vehicle: Klucel (hydroxypropylcellulose) (HPC)
[4] = dose: 128.0 mg/kg/injection, schedule: Q01DX001 (ip), vehicle: Klucel (hydroxypropylcellulose) (HPC)
[5] = dose: 128.0 mg/kg/injection, schedule: Q01DX001 (oral), vehicle: Klucel (hydroxypropylcellulose) (HPC)
[6] = dose: 256.0 mg/kg/injection, schedule: Q01DX001 (ip), vehicle: Klucel (hydroxypropylcellulose) (HPC)
[7] = dose: 256.0 mg/kg/injection, schedule: Q01DX001 (oral), vehicle: Klucel (hydroxypropylcellulose) (HPC)
[8] = dose: 512.0 mg/kg/injection, schedule: Q01DX001 (ip), vehicle: Klucel (hydroxypropylcellulose) (HPC)
[9] = dose: 512.0 mg/kg/injection, schedule: Q01DX001 (oral), vehicle: Klucel (hydroxypropylcellulose) (HPC)
[10] = dose: 8.0 mg/kg/injection, schedule: Q01DX005 (ip), vehicle: saline
[11] = dose: 16.0 mg/kg/injection, schedule: Q01DX005 (ip), vehicle: saline with Tween-80
[12] = dose: 16.0 mg/kg/injection, schedule: Q01DX005 (ip), vehicle: saline
[13] = dose: 32.0 mg/kg/injection, schedule: Q01DX005 (ip), vehicle: saline with Tween-80
[14] = dose: 32.0 mg/kg/injection, schedule: Q01DX005 (ip), vehicle: saline
[15] = dose: 64.0 mg/kg/injection, schedule: Q01DX005 (ip), vehicle: saline with Tween-80
[16] = dose: 1.0 mg/kg/injection, schedule: Q01DX005 (ip), vehicle: Klucel (hydroxypropylcellulose) (HPC)
[17] = dose: 2.0 mg/kg/injection, schedule: Q01DX005 (ip), vehicle: Klucel (hydroxypropylcellulose) (HPC)
[18] = dose: 4.0 mg/kg/injection, schedule: Q01DX005 (ip), vehicle: saline with Tween-80
[19] = dose: 4.0 mg/kg/injection, schedule: Q01DX005 (ip), vehicle: saline
[20] = dose: 8.0 mg/kg/injection, schedule: Q01DX005 (ip), vehicle: saline with Tween-80

SMILES: O=NN(CCCl)C(=O)NC1CCCCC1
- T/C (dose: 8.0 mg/kg/injection, schedule: Q01DX001 (ip), vehicle: Klucel (hydroxypropylcellulose) (HPC)): 106 % of control
- T/C (dose: 8.0 mg/kg/injection, schedule: Q01DX005 (oral), vehicle: Klucel (hydroxypropylcellulose) (HPC)): 155 % of control
- T/C (dose: 16.0 mg/kg/injection, schedule: Q01DX001 (ip), vehicle: Klucel (hydroxypropylcellulose) (HPC)): 105 % of control
- T/C (dose: 16.0 mg/kg/injection, schedule: Q01DX001 (oral), vehicle: Klucel (hydroxypropylcellulose) (HPC)): 111 % of control
- T/C (dose: 16.0 mg/kg/injection, schedule: Q01DX005 (oral), vehicle: Klucel (hydroxypropylcellulose) (HPC)): 311 % of control
- T/C [1]: 98 % of control and 111 % of control
- T/C (dose: 32.0 mg/kg/injection, schedule: Q01DX001 (oral), vehicle: Klucel (hydroxypropylcellulose) (HPC)): 113 % of control
- T/C (dose: 32.0 mg/kg/injection, schedule: Q01DX005 (oral), vehicle: Klucel (hydroxypropylcellulose) (HPC)): 310 % of control
- T/C [2]: 104 % of control and 106 % of control
- T/C [3]: 113 % of control
- T/C [4]: 95 % of control
- T/C [5]: 100 % of control
- T/C [6]: 108 % of control
- T/C [7]: 104 % of control
- T/C [8]: 95 % of control
- T/C [9]: 97 % of control

SMILES: CC(=O)Nc1ccc(/C=N/NC(N)=S)cc1
- T/C (dose: 45.0 mg/kg/injection, schedule: Q01DX005 (ip), vehicle: saline with Tween-80): 98 % of control
- T/C (dose: 90.0 mg/kg/injection, schedule: Q01DX005 (ip), vehicle: saline with Tween-80): 93 % of control and 102 % of control
- T/C (dose: 180.0 mg/kg/injection, schedule: Q01DX005 (ip), vehicle: saline with Tween-80): 92 % of control and 104 % of control
- T/C (dose: 360.0 mg/kg/injection, schedule: Q01DX005 (ip), vehicle: saline with Tween-80): 96 % of control and 98 % of control
- T/C (dose: 720.0 mg/kg/injection, schedule: Q01DX005 (ip), vehicle: saline with Tween-80): 105 % of control and 110 % of control

SMILES: CCN(CC)CCCC(C)Nc1c2ccc(Cl)cc2nc2ccc(OC)cc12 (stereo not drawn)
- T/C [10]: 104 % of control
- T/C [11]: 91 % of control
- T/C [12]: 98 % of control
- T/C [13]: 102 % of control
- T/C [14]: 90 % of control
- T/C [15]: 94 % of control
- T/C (dose: 64.0 mg/kg/injection, schedule: Q01DX005 (ip), vehicle: saline): 95 % of control
- T/C (dose: 128.0 mg/kg/injection, schedule: Q01DX005 (ip), vehicle: saline with Tween-80): 94 % of control

SMILES: Nc1nc([Se])c2ncn(C3OC(CO)C(O)C3O)c2n1 (stereo not drawn)
- T/C (dose: 0.25 mg/kg/injection, schedule: Q01DX005 (ip), vehicle: Klucel (hydroxypropylcellulose) (HPC)): 103 % of control and 106 % of control
- T/C (dose: 0.5 mg/kg/injection, schedule: Q01DX005 (ip), vehicle: Klucel (hydroxypropylcellulose) (HPC)): 107 % of control and 112 % of control
- T/C [16]: 99 % of control and 101 % of control
- T/C [17]: 100 % of control and 102 % of control and 112 % of control
- T/C (dose: 4.0 mg/kg/injection, schedule: Q01DX005 (ip), vehicle: Klucel (hydroxypropylcellulose) (HPC)): 88 % of control and 105 % of control and 112 % of control
- T/C [18]: 96 % of control
- T/C [19]: 100 % of control
- T/C [20]: 100 % of control
- T/C [10]: 98 % of control and 99 % of control
- T/C (dose: 16.0 mg/kg/injection, schedule: Q01DX005 (ip), vehicle: Klucel (hydroxypropylcellulose) (HPC)): 102 % of control and 103 % of control
- T/C [11]: 113 % of control
- T/C [12]: 106 % of control and 111 % of control
- T/C (dose: 27.8 mg/kg/injection, schedule: Q## X006 (ip), vehicle: saline): 108 % of control
- T/C [14]: 116 % of control
- T/C (dose: 32.0 mg/kg/injection, schedule: Q#A X002 (ip), vehicle: saline): 95 % of control and 104 % of control
- T/C (dose: 55.7 mg/kg/injection, schedule: Q## X006 (ip), vehicle: saline): 112 % of control
- T/C (dose: 64.0 mg/kg/injection, schedule: Q#A X002 (ip), vehicle: saline): 101 % of control and 120 % of control
- T/C (dose: 128.0 mg/kg/injection, schedule: Q#A X002 (ip), vehicle: saline): 87 % of control

SMILES: CCN(CC)c1ccc2cc3ccc(=[N+](CC)CC)cc-3oc2c1
- T/C [19]: 100 % of control
- T/C [10]: 107 % of control

SMILES: NNC(=O)c1ccncc1
- T/C (dose: 28.75 mg/kg/injection, schedule: Q01DX005 (ip), vehicle: saline): 94 % of control
- T/C (dose: 57.5 mg/kg/injection, schedule: Q01DX005 (ip), vehicle: saline): 102 % of control
- T/C (dose: 115.0 mg/kg/injection, schedule: Q01DX005 (ip), vehicle: saline): 105 % of control

SMILES: [N-]=[N+]=CC(=O)CCC(N)C(=O)O (stereo not drawn)
- T/C (dose: 0.05 mg/kg/injection, schedule: Q01DX005 (ip), vehicle: saline): 101 % of control
- T/C (dose: 0.1 mg/kg/injection, schedule: Q01DX005 (ip), vehicle: saline): 115 % of control
- T/C (dose: 0.2 mg/kg/injection, schedule: Q01DX005 (ip), vehicle: saline): 106 % of control
- T/C (dose: 0.8 mg/kg/injection, schedule: Q01DX005 (ip), vehicle: saline): 121 % of control

SMILES: CCOC(=O)C(CC(C)C)NC(=O)C(Cc1ccc(N(CCCl)CCCl)cc1)NC(C)=O (stereo not drawn)
- T/C [16]: 103 % of control
- T/C [17]: 94 % of control and 101 % of control
- T/C [18]: 96 % of control and 109 % of control
- T/C [20]: 110 % of control and 119 % of control
- T/C [11]: 107 % of control
- T/C (dose: 16.0 mg/kg/injection, schedule: Q#A X002 (ip), vehicle: Klucel (hydroxypropylcellulose) (HPC)): 110 % of control
- T/C [1]: 100 % of control
- T/C [13]: 97 % of control and 116 % of control
- T/C (dose: 32.0 mg/kg/injection, schedule: Q#A X002 (ip), vehicle: Klucel (hydroxypropylcellulose) (HPC)): 96 % of control
- T/C [2]: 97 % of control and 103 % of control
- T/C [3]: 99 % of control and 113 % of control
- T/C [15]: 91 % of control
- T/C (dose: 64.0 mg/kg/injection, schedule: Q#A X002 (ip), vehicle: Klucel (hydroxypropylcellulose) (HPC)): 94 % of control
- T/C [4]: 94 % of control and 115 % of control
- T/C [5]: 99 % of control and 110 % of control
- T/C (dose: 128.0 mg/kg/injection, schedule: Q#A X002 (ip), vehicle: Klucel (hydroxypropylcellulose) (HPC)): 99 % of control
- T/C [6]: 91 % of control and 98 % of control
- T/C [7]: 101 % of control and 110 % of control
- T/C [8]: 86 % of control
- T/C [9]: 104 % of control and 114 % of control
- T/C (dose: 1024.0 mg/kg/injection, schedule: Q01DX001 (oral), vehicle: Klucel (hydroxypropylcellulose) (HPC)): 100 % of control and 109 % of control

SMILES: Cc1nc(N)nc(N)c1-c1ccc(Cl)c(Cl)c1
- T/C (dose: 0.5 mg/kg/injection, schedule: Q01DX005 (ip), vehicle: saline with Tween-80): 106 % of control and 117 % of control
- T/C (dose: 1.0 mg/kg/injection, schedule: Q01DX005 (ip), vehicle: saline with Tween-80): 89 % of control and 97 % of control
- T/C (dose: 2.0 mg/kg/injection, schedule: Q01DX005 (ip), vehicle: saline with Tween-80): 117 % of control
- T/C (dose: 6.0 mg/kg/injection, schedule: Q04DX003 (ip), vehicle: saline): 101 % of control
- T/C (dose: 8.0 mg/kg/injection, schedule: Q04DX003 (ip), vehicle: saline): 112 % of control

SMILES: COS(C)(=O)=O
- T/C [12]: 113 % of control
